Assay results as given in patent US11649208B2, “Compounds and methods for treating alcohol disorder” (SOPHROSYNE PHARMACEUTICALS LIMITED, priority 2021, dated 2023).
Converted amounts (≈) assume the structure as drawn. Where two headings read alike, the source gives them in different places.

How the values were obtained:
[1] = molecular target: T1, liver ALDH2 (Rattus norvegicus, UniProt P11884); test: In vivo ALDH2 enzymatic activity assay, ethanol challenge (Example 2); design: species or system rats (Sprague Dawley)
T1 construct: from tissue; host or cells: liver (left lateral lobe) lysate of Sprague Dawley (CD-IGS) rats
T1 sequence (P11884 20-519): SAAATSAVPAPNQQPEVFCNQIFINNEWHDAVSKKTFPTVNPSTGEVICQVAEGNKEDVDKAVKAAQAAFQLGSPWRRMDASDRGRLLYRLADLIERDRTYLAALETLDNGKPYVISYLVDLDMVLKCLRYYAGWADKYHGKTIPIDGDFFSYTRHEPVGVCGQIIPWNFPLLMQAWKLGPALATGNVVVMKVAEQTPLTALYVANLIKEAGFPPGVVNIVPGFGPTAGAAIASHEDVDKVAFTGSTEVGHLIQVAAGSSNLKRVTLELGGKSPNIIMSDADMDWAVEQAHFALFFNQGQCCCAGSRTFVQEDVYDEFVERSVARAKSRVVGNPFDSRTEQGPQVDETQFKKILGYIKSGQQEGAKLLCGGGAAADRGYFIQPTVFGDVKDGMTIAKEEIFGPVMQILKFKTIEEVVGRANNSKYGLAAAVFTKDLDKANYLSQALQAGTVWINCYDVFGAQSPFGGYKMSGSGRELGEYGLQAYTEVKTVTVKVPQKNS
Description: Sixty (60) male and sixty (60) female Sprague Dawley (CD-IGS) were obtained from Charles River Laboratories. All animals were housed under controlled conditions of temperature (72±8° F.), relative humidity (30-70%) and a 12-hour light-dark cycle (light from 6:00 AM to 6:00 PM). All animals were allowed free access to standard rodent chow (PicoLab Rodent Diet 20) and water (reverse osmosis, 0.2 μM filtered). Animals had at least a 3-day acclimation period prior to study.
Example 1-2 was synthesized by PharmAgra Labs, Lot #489PAL97; and stored at 4° C. and protected from light upon receipt. Example 1-2 dosing solutions were prepared by dissolving in PBS (pH 7.0) and thoroughly mixing via vortexing and sonication.
Example 1-15 was synthesized by PharmAgra Labs, Lot #505PAL17; and stored at 4° C. and protected from light upon receipt. Example 1-15 dosing solution was prepared by dissolving in PBS (pH 7.0) and thoroughly mixing via vortexing and sonication. The dosing formulation at concentration of 20 mg/mL was a clear solution.
Body weights of the animals in Groups 1-4 were obtained on Day 1. Body weights of the animals in Groups 5-8 were obtained on Days 1-3 respectively. Body weights of the animals in Groups 9-13 were obtained on Days 1, 4 and 5 respectively.
(§1) Animals were respectively administered vehicle and Example 1-2 at dosages of 2, 6.5 or 12 mg/kg via tail vein injection, once daily for 1 day (Groups 1-4), once daily for 3 days (Groups 5-8), or once daily for 5 days (Groups 9-12). For Group 13, animals were administered 20 mg/kg (on Day 1) or 12 mg/kg (on Days 2-5) dose via tail vein injection, once daily for 5 days. In some studies, the animals were administered a compound described herein for 10 days. In some studies, the animals were administered a compound described herein for 12 days. In some studies, the study was carried out with administered the compounds described herein including Example 1-2 racemate, Example 1-2A, Example 1-21B, Example 1-11 racemate, Example 1-11A, and/or Example 1-11B at a dosage of about 0.5, 1, 2, 4, and 8 mg.
Dosing volume (1 or 0.6 mL/kg) was calculated based on the body weight of the individual animal obtained on Day 1 (all groups), Days 2-3 (Groups 5-8), and Days 4-5 (Groups 9-13).
Ethanol (200PRF or 100% pure, non-denatured and no additives) was obtained from Fisher Scientific. The ethanol dosing solution was prepared fresh for each use. One (1) mL of ethanol was added to four (4) mL of saline (0.9% NaCl) in a glass vial and mixed by vortexing to create a uniform solution prior to administration. Animals were administered 20% ethanol at 1 g/kg (IP) 8 hours following the last dose of test article. Thirty (30) minutes following ethanol challenge, animals were euthanized with CO2. About 7 mL of whole blood was rapidly collected via vena cava for generation of serum samples for assays (Acetaldehyde assay by GPL and ALDH2 activity and protein assay by Eurofins). Blood samples were placed into serum separator tubes and maintained at room temperature for at least 30 minutes to allow clot formation prior to processing.
The left lateral lobe of liver was harvested and rinsed in cold saline to render a sample that was snap frozen in liquid nitrogen. Samples were stored at −80° C. until shipment. […]
The obtained serum samples as described herein were measured in singlicate for Acetaldehyde concentration using the Acetaldehyde Colorimetric Assay Kit (BioAssay Systems, #EACT-100), in accordance with manufacturer's instructions. […]

[2] = molecular target: T1, liver ALDH2; test: In vivo ALDH2 enzymatic activity assay with disulfiram comparison, ethanol challenge (Example 3); design: species or system rats (Sprague Dawley); details: for statistical significance of ALDH2 inhibitions: 2 mg/kg, 6.5 mg/kg and 12 mg/kg IV QD; for dose-activity response of ALDH2 inhibition: 2, 6.5, 12 mg/kg IV QD 3 days; for onset of inhibition of ALDH2 activity: after only 3-day administration; for ALDH2 inhibition versus Disulfiram at 3.57 mg/kg/day PO: after three days at 2 mg/kg/day IV
Description: Eighty-eight (88) male Sprague Dawley (CD-IGS) were obtained from Charles River Laboratories. All animals were housed under controlled conditions of temperature (72±8° F.), relative humidity (30-70%) and a 12-hour light-dark cycle (light from 6:00 AM to 6:00 PM). All animals were allowed free access to standard rodent chow (PicoLab Rodent Diet 20) and water (reverse osmosis, 0.2 μM filtered). Animals had at least a 3-day acclimation period prior to study.
30 mL disulfiram formulation were prepared. 64.2 mg of disulfiram was completely dissolved in 6 mL of DMSO to render a mixture. 0.3 mL of Tween 80 was then slowly added to the mixture. To the resulting mixture, 23.7 mL of PBS (1×, pH 5.0) was slowly added while stirring to render a dosing formulation. The dosing formulation was a fine suspension at concentration of 2.14 mg/mL. The final concentrations for DMSO and […] were 20% v/v and 1% v/v, respectively.
The dosing formulations of Example 1-4A, Example 1-4B3, and Example 1-2 and difulfiram were prepared with PBS (pH 7.0) by thoroughly mixing via vortexing and sonication.
Ethanol challenge study design and dosing groups of Example 1-4A, Example 1-48, and Example 1-2 and difulfiram are as shown in Table 3.
Animals in Group 1 was administered vehicle (PBS) via tail vein injection, once daily for 3 days. Animals in Group 2 was administered vehicle (PBS) disulfiram at 3.57 mg/kg via oral gavage (PO) once daily for 3 days. Animals in Groups 3-11 were respectively administered Example 1-4A at 2, 6.5, and 12 mg/kg, Example 1-4B at 2, 6.5, and 12 mg/kg, or Example 1-2 at 2, 6.5, and 12 mg/kg via tail vein injection, once daily for 3 days.
Dosing volume (1 or 1.67 mL/kg) was calculated based on the individual body weight obtained prior to the first dose of test article.
Ethanol (200PRF or 100% pure, non-denatured and no additives) was obtained from Fisher Scientific. Ethanol dosing solution (20% v/v in saline) was prepared by mixing one (1) part of ethanol and four (4) part of saline (0.9% NaCl) thoroughly to create a uniform solution prior to administration. Animals was administered 20% ethanol at 1 g/kg (IP) 8 hours following the third dose of test article. Thirty (30) minutes following ethanol challenge, animals were euthanized with CO2. About 2 mL of whole blood was rapidly collected via vena cava for generation of plasma samples. Blood samples were placed into K2 EDTA tubes and kept on wet ice prior to processing. Liver lysate generation, protein concentration determination, and ALDH2 activity assay were performed by Confluence Discovery Technologies (CDT). Protein concentrations were determined using the Pierce BCA Protein Assay Kit. ALDH2 Activity Assay using the Abcam assay kit #ab115348.

[3] = molecular target: T1, liver ALDH2; test: as above; design: species or system rats (Sprague Dawley); details: 2 mg/kg, 6.5 mg/kg and 12 mg/kg IV QD; printed 'after 5 days'
[4] = molecular target: T1, liver ALDH2; test: 10-day rat Pharmacology study, liver ALDH2 activity following ethanol challenge; format: in vivo
Description: as §1
Ethanol (200PRF or 100% pure, non-denatured and no additives) was obtained from Fisher Scientific. The ethanol dosing solution was prepared fresh for each use. One (1) mL of ethanol was added to four (4) mL of saline (0.9% NaCl) in a glass vial and mixed by vortexing to create a uniform solution prior to administration. Animals were administered 20% ethanol at 1 g/kg (IP) 8 hours following the last dose of test article. Thirty (30) minutes following ethanol challenge, animals were euthanized with CO2. […]

[5] = Solubility in CHCl3, DCM and DMSO by SFC/UV; format: physicochemical; details: organic solvent or mixture, thermodynamic from solid, room temperature
Description: The solubility in chloroform (CHCl3), dichloromethane (DCM) and dimethyl sulfoxide (DMSO) was determined at room temperature up to 50 mg/mL by measuring the concentrations of the solutions using SFC/UV. […] 200 mg Example 1-11B was weighed individually into three separate vials. 4 mL DMSO, 6 mL CHCl3 and 6 mL DCM were pipetted into the three vials containing Example 1-11B. The solutions were mixed and sonicated for 10 minutes. The DMSO solution was clear, and an aliquot was taken and diluted 100 times using MeOH before being subjected to SFC analysis. The saturated CHCl3 and DCM solutions were centrifuged, and the clear solution was diluted 100 times using MeOH before being subjected to SFC analysis:
Solubility measurement of up to 50 mg/mL in DMSO, CHCl3 and DCM was requested. […] At 50 mg/mL, Example 1-11B was not completely dissolved in CHCl3 or DCM solutions. After mixing and sonication, a clear aliquot of each solution was taken, and the concentrations of Example 1-11B in CHCl3 and DCM were measured by SFC/UV using the DMSO solution as a reference.

| SMILES | statistical significance of ALDH2 inhibitions [2] | dose-activity response of ALDH2 inhibition [2] | onset of inhibition of ALDH2 activity [2] | ALDH2 inhibition versus Disulfiram at 3.57 mg/kg/day PO [2] | ALDH2 inhibition (FIG. 7) [3] | also measured |
| --- | --- | --- | --- | --- | --- | --- |
| CCN(CC)C(=O)[S+](C)[O-] (racemic) [Example 1-2, N,N-diethyl-1-(methylsulfinyl)methanamide] | statistically significant | A dose-activity response was observed | fast activity onset | greater inhibition | showed ALDH2 inhibitions | ALDH2 inhibition after one (1) day administration ([1]; 6.5 mg/kg and 12 mg/kg IV, 1 day): statistically significant ALDH2 inhibitions were observed; dose response and treatment-duration response in inhibiting ALDH2 activities ([1]; 2, 6.5 or 12 mg/kg tail vein injection QD for 1, 3 or 5 days, ethanol 1 g/kg IP 8 h after last dose): A dose response and a treatment-duration response were observed; ALDH2 inhibition, treatment for 3 and 5 days ([1]; all doses (2, 6.5, 12 mg/kg) IV QD for 3 and 5 days): statistically significant ALDH2 inhibitions at all doses; inhibition of liver ALDH2 activity (FIGS. 2 and 3) ([1]; dosages of 2 mg/kg, 6.5 mg/kg and 12 mg/kg IV QD): statistically significant effectiveness in inhibiting liver ALDH2 activity |
| C[S+]([O-])C(=O)N1CCC(O)CC1 (racemic) [Example 1-11, (4-hydroxypiperidin-1-yl)(methylsulfinyl)methanone] | – | – | – | – | – | ALDH2 inhibition versus pure enantiomer Example 1-11A (FIG. 12) ([4]; 10 day administration at 2, 4 and 8 mg/kg, material with 66 wt % of Example 1-11B): greater ALDH2 inhibition than the pure enantiomer Example 1-11A |
| CCN(CC)C(=O)[S@+](C)[O-] (single isomer, unassigned; peak-1) [Example 1-2A, (S )-N, N-diethyl-1 - (methylsulfinyl)methanamide (Peak-1)] | – | – | – | – | – | ALDH2 inhibition, enantiomer versus other enantiomer (FIG. 12) ([4]; 10-day administration at 0.5, 1 and 2 mg/kg): greater ALDH2 inhibition compared the other enantiomer Example 1-2B |
| CCN(CC)C(=O)[S+]([O-])CC1CC1 (single isomer, unassigned; peak-2) [Example 1-4B, 1-((cyclopropylmethyl)sulfinyl)-N,N-diethylmethanamide (Peak-2)] | statistically significant | A dose-activity response was observed | fast activity onset | greater inhibition | showed ALDH2 inhibitions | – |
| C[S@+]([O-])C(=O)N1CCC(O)CC1 [Example 1-11B, (S)-(4-hydroxypiperidin-1-yl)(methylsulfinyl)methanone] | – | – | – | – | – | solubility at 10 min ([5]; chloroform (CHCl3), SFC/UV, read-out: solubility in CHCl3): 12.4 mg/mL (≈ 64.8 mM); solubility at 10 min ([5]; dichloromethane (DCM), SFC/UV, read-out: solubility in DCM): 12.3 mg/mL (≈ 64.3 mM); solubility at 10 min ([5]; dimethyl sulfoxide (DMSO), tested up to 50 mg/mL, read-out: solubility in DMSO): > 50 mg/mL |
